From US8785614B2, “Aberrantly methylated genes in pancreatic cancer” (The Johns Hopkins University, priority 2003, dated 2014)
Like-named read-outs stand apart in the source and are kept apart here.

Assays:
[1] = test system: Panc1 pancreatic cancer cell line
Description: Mock-treated cells were cultured with the equivalent volume of PBS alone.
Total RNA was isolated from cultured cells using TRIZOL reagent (invitrogen, Carlsbad, Calif.) and purified using RNeasy Mini Kit (Qiagen, Valencia, Calif.). First- and second-stranded cDNA was synthesized from 10 μg of total RNA using 17-dT) primer (Genset Corp., La Jolla, Calif.) and Superscript Choice system (Invitrogen). Labeled cRNA was synthesized from the purified cDNA by in vitro transcription reaction using the BioArray High Yield RNA Transcript Labeling Kit (Enzo Diagnostics, Inc., Farmingdale, N.Y.) at 37° C. for 6 h. The cRNA was fragmented at 94° C. for 35 min. in a fragmentation buffer [40 mM Tris-acetate @ pH 8.1, 100 mM potassium acestate, and 30 mM magnesium acetate]. The fragmented cRNA was then hybridized to the Human Genome U133A chips (Affymetrix, Santa Clara, Calif.) with 18462 unique gene/EST transcripts at 45° C. for 16 h. The washing and staining procedure was performed in the Affymetrix Fluidics Station according to the manufacturer's instructions. The probes were then scanned using a laser scanner, and signal intensity for each transcript (background-subtracted and adjusted for noise) was calculated using Microarray Suite Software 5.0 (Affymetrix).
Fold change analysis of signal intensities obtained from oligonucleotide microarrays between the two treatment groups was performed using Data Mining software (Afrymetrix).
The global changes in gene expression proxies induced by 5Aza-dC in four pancreatic cancer cell lines (AsPCl, Hs766T, MiaPaCa2, and Panel) were determined using the Afrymetrix U133 oligonucleotide microarrays with 18462 probes sets (transcripts) covering over 13000 full-length sequences of known genes.

[2] = test system: Panc1 pancreatic cancer cell line; experiment: Oligonucleotide microarray gene expression after TSA (1 μM, 24 h) vs mock; format: cell-based, human
Description: These include a large panel of novel targets for silencing by histone deacetylation including several known tumor suppressor genes or cell cycle-regulatory genes (ING1, p57KIP2, CHES1, CHFR, GADD45B, and others).

Nc1ncn([C@H]2C[C@H](O)[C@@H](CO)O2)c(=O)n1 [5Aza-dC, 5 aza 2′ deoxycytidine]
Fold-change after 5Aza-dC treatment ([1]; ANGPT2, Panc1): 0.91 fold | Fold-change after 5Aza-dC treatment ([1]; BARD1, Panc1): −1.01 fold | Fold-change after 5Aza-dC treatment ([1]; BNIP3, Panc1): −1.07 fold | Fold-change after 5Aza-dC treatment ([1]; BST2, Panc1): −1.04 fold | Fold-change after 5Aza-dC treatment ([1]; CACNA1G, Panc1): 5.26 fold | Fold-change after 5Aza-dC treatment ([1]; CCNE2, Panc1): 1.52 fold | Fold-change after 5Aza-dC treatment ([1]; CDH3, Panc1): 2.31 fold | Fold-change after 5Aza-dC treatment ([1]; CDKN1A (p21), Panc1): 1.93 fold | Fold-change after 5Aza-dC treatment ([1]; CDKN1C, Panc1): 3.77 fold | Fold-change after 5Aza-dC treatment ([1]; CLDN5, Panc1): 1.88 fold | Fold-change after 5Aza-dC treatment ([1]; CSF1, Panc1): −1.91 fold | Fold-change after 5Aza-dC treatment ([1]; FOXE1, Panc1): 1.7 fold | Fold-change after 5Aza-dC treatment ([1]; GAGE1, Panc1): 0.46 fold | Fold-change after 5Aza-dC treatment ([1]; GAGE3, Panc1): 9.78 fold | Fold-change after 5Aza-dC treatment ([1]; GAGE4, Panc1): 35.44 fold | Fold-change after 5Aza-dC treatment ([1]; GAGE6, Panc1): 35.5 fold | Fold-change after 5Aza-dC treatment ([1]; GAGE7, Panc1): 36.1 fold | Fold-change after 5Aza-dC treatment ([1]; HOXA1, Panc1): 1.26 fold | Fold-change after 5Aza-dC treatment ([1]; IGF2, Panc1): 9.41 fold | Fold-change after 5Aza-dC treatment ([1]; IL1R1, Panc1): 1.37 fold | Fold-change after 5Aza-dC treatment ([1]; ISG20, Panc1): −0.84 fold | Fold-change after 5Aza-dC treatment ([1]; JPH3, Panc1): −4.18 fold | Fold-change after 5Aza-dC treatment ([1]; KLK10, Panc1): −1.05 fold | Fold-change after 5Aza-dC treatment ([1]; LDOC1, Panc1): 9.19 fold | Fold-change after 5Aza-dC treatment ([1]; LHX1, Panc1): 1.79 fold | Fold-change after 5Aza-dC treatment ([1]; MAGE1, Panc1): 7.32 fold | Fold-change after 5Aza-dC treatment ([1]; MATN1, Panc1): 3.61 fold | Fold-change after 5Aza-dC treatment ([1]; NEFH, Panc1): 4.59 fold | Fold-change after 5Aza-dC treatment ([1]; NPTX2, Panc1): 18.94 fold | Fold-change after 5Aza-dC treatment ([1]; PAX6, Panc1): 4.45 fold | Fold-change after 5Aza-dC treatment ([1]; PDYN, Panc1): 4.84 fold | Fold-change after 5Aza-dC treatment ([1]; PLAT, Panc1): 2.13 fold | Fold-change after 5Aza-dC treatment ([1]; PLEK2, Panc1): 1.08 fold | transcripts with >5-fold increase, share of the 18462 transcripts analyzed ([1]; Panc1): 0.6% | transcripts with substantial increase (>5-fold) in signal intensities ([1]; Panc1, vs mock-treated): 116 transcripts | Fold-change after 5Aza-dC treatment ([1]; SARP2, Panc1): −1.47 fold | Fold-change after 5Aza-dC treatment ([1]; SMARCA1, Panc1): 1.01 fold | Fold-change after 5Aza-dC treatment ([1]; ST14, Panc1): 5.1 fold | Fold-change after 5Aza-dC treatment ([1]; TIMP3, Panc1): 1.1 fold | Fold-change after 5Aza-dC treatment ([1]; TJP2, Panc1): 1.49 fold | Fold-change after 5Aza-dC treatment ([1]; TNF, Panc1): 1.18 fold | Fold-change after 5Aza-dC treatment ([1]; UCHL1, Panc1): 2.37 fold | Fold-change after 5Aza-dC treatment ([1]; WNT7A, Panc1): 3.57 fold | Fold-change after 5Aza-dC treatment ([1]; XAGE-1, Panc1): 24.78 fold | Fold-change after 5Aza-dC treatment ([1]; granulocytemacrophage colony-stimulating factor (M11734), Panc1): 2.17 fold | Fold-change after 5Aza-dC treatment ([1]; interferon, alpha-inducible protein (NM_022873), Panc1): 1.2 fold | Fold-change after 5Aza-dC treatment ([1]; p53-induced protein (PIGII), Panc1): 1.04 fold | Fold-change after 5Aza-dC treatment ([1]; reprimo, Panc1): 1.03 fold | Fold-change after 5Aza-dC treatment ([1]; stratifin (14-3-3 sigma), Panc1): 1.21 fold | Fold-change after 5Aza-dC treatment ([1]; stromal antigen 3 (STAG5), Panc1): 6.84 fold | Fold-change after 5Aza-dC treatment ([1]; testin, Panc1): 1.57 fold

CC(/C=C/C(=O)NO)=C\[C@@H](C)C(=O)c1ccc(N(C)C)cc1 [TSA, trichostatin A]
Fold-change after TSA treatment ([2]; ADM, Panc1): 3.22 fold | Fold-change after TSA treatment ([2]; ANGPT1, Panc1): −1.13 fold | Fold-change after TSA treatment ([2]; AREG, Panc1): 4.2 fold | Fold-change after TSA treatment ([2]; ATF3, Panc1): 2.74 fold | Fold-change after TSA treatment ([2]; BIK, Panc1): 5.02 fold | Fold-change after TSA treatment ([2]; CACNA1G, Panc1): 10.14 fold | Fold-change after TSA treatment ([2]; CAPN5, Panc1): 5.41 fold | Fold-change after TSA treatment ([2]; CDH8, Panc1): 6.85 fold | Fold-change after TSA treatment ([2]; CDKN1C, Panc1): 6.26 fold | Fold-change after TSA treatment ([2]; CGR11, Panc1): 11.66 fold | Fold-change after TSA treatment ([2]; CHES1, Panc1): 9.31 fold | Fold-change after TSA treatment ([2]; CHFR, Panc1): −1.33 fold | Fold-change after TSA treatment ([2]; CLDN15, Panc1): 8.69 fold | Fold-change after TSA treatment ([2]; EDR1, Panc1): −2.06 fold | Fold-change after TSA treatment ([2]; EGR4, Panc1): 6.44 fold | Fold-change after TSA treatment ([2]; EREG, Panc1): −1.37 fold | Fold-change after TSA treatment ([2]; GADD45B, Panc1): −1.09 fold | Fold-change after TSA treatment ([2]; GAGE1, Panc1): 0.63 fold | Fold-change after TSA treatment ([2]; GAGE2, Panc1): 1.4 fold | Fold-change after TSA treatment ([2]; GAGE3, Panc1): 1.07 fold | Fold-change after TSA treatment ([2]; GAGE4, Panc1): 2.29 fold | Fold-change after TSA treatment ([2]; GAGE6, Panc1): 1.62 fold | Fold-change after TSA treatment ([2]; GAGE7B, Panc1): 3.56 fold | Fold-change after TSA treatment ([2]; HEP27, Panc1): 31.64 fold | Fold-change after TSA treatment ([2]; HMOX1, Panc1): 1.21 fold | Fold-change after TSA treatment ([2]; HPSE, Panc1): 3.03 fold | Fold-change after TSA treatment ([2]; ID2, Panc1): 21.22 fold | Fold-change after TSA treatment ([2]; ING1, Panc1): 1.5 fold | Fold-change after TSA treatment ([2]; KLK12, Panc1): 2.13 fold | Fold-change after TSA treatment ([2]; MAGE1, Panc1): 15.48 fold | Fold-change after TSA treatment ([2]; MBD1, Panc1): −1.82 fold | Fold-change after TSA treatment ([2]; MMP1, Panc1): −2.63 fold | Fold-change after TSA treatment ([2]; NGFR, Panc1): 30.7 fold | Fold-change after TSA treatment ([2]; NOTCH3, Panc1): 3.9 fold | Fold-change after TSA treatment ([2]; P-glycoprotein (mdr1), Panc1): 3.69 fold | transcripts with marked induction ([2]; Panc1): 459 transcripts | transcripts with marked induction, share of transcripts analyzed ([2]; Panc1 (printed Panel)): 2.5% | Fold-change after TSA treatment ([2]; SPANXA1, Panc1): 6.45 fold | Fold-change after TSA treatment ([2]; STC1, Panc1): 5.63 fold | Fold-change after TSA treatment ([2]; UCPH, Panc1): 2.05 fold | Fold-change after TSA treatment ([2]; ULBP2, Panc1): 18.25 fold | Fold-change after TSA treatment ([2]; WNT4, Panc1): 5.13 fold | Fold-change after TSA treatment ([2]; candidate tumor suppressor gene 21 protein (AF040708), Panc1): 1.01 fold | Fold-change after TSA treatment ([2]; connective tissue growth factor (M92934), Panc1): 7.69 fold | Fold-change after TSA treatment ([2]; hemoglobin, alpha 1 (HBAI), Panc1): 4.55 fold | Fold-change after TSA treatment ([2]; interleukin 8, Panc1): 3.01 fold | Fold-change after TSA treatment ([2]; member 2 (BC002649), Panc1): 5.04 fold | Fold-change after TSA treatment ([2]; period homolog 1 (PERI), Panc1): −3.83 fold | Fold-change after TSA treatment ([2]; prostate differentiation factor (AF003934), Panc1): 4.05 fold | Fold-change after TSA treatment ([2]; protease inhibitor 12 (neuroserpin) (SERPINU), Panc1): 11.7 fold | Fold-change after TSA treatment ([2]; synovial sarcoma, X breakpoint 1 (BC001003), Panc1): 2.73 fold | Fold-change after TSA treatment ([2]; tissue factor pathway inhibitor-2 (L27624), Panc1): 34.65 fold
